As usually defined, the Ki is the equilibrium dissociation constant of an inhibitor or competing ligand from its target.

The text below walks through data of patent US12370182B2, “Bicyclic derivatives as GABAA A5 receptor modulators” (RICHTER GEDEON NYRT., priority 2018, dated 2025).

This assay concerns the target human recombinant GABAA α5β3γ2 receptor (Homo sapiens (Human), UniProt P18507+P31644). The assay is described as follows: Binding assay, [3H]Ro151788 displacement on membranes of HEK cells. Particulars: 0.5 nM [3H]Ro151788, 60 minutes at 4° C., Cheng-Prusoff; read-out: hGABAA α5 Ki. Here is the method: The GABAA α5β3γ2 protein used for the receptor binding assay was derived from membranes produced from HEK cells (Millipore CYL3073) expressing the human recombinant GABAA α5β3γ2 receptor. Cells were stored and cultured in-house according to the instructions provided by the vendor (Millipor). Cell pellet was homogenized in 10 times modified Krebs Henseleit buffer (membrane preparation buffer): 20 mM Tris, 120 mM NaCl, 100 mM KCl, 25 mM CaCl2) and 25 mM MgCl2 pH=7.4 at 4° C. using Ultra Turrax (Janke&Kunkel) maximal speed for 15 seconds. The homogenate was centrifuged at 40,000 g for 30 minutes at 4° C. Supernatant was discarded and the resulting pellet was washed in membrane preparation buffer. Pellet was resuspended in membrane preparation buffer and aliquots of 1.4 mL ampulles were stored at −70° C. until use.
Receptor binding assays were performed in 96-well format in deep-well plates. For each 96-well plate one ampulle of membrane homogenate was thawed and diluted in binding buffer (50 mM Tris pH=7.4, 100 mM KCl) and 200 μL was dispensed into each well. Radioligand [^3H]Ro151788 (Perkin Elmer: NET757250UC) was prepared in binding buffer and added to each well in 50 μL volume to give final concentration of 0.5 nM. Test compounds in suitable concentration(s) were added in additional 50 μL. The final assay volume was 300 μL. Incubation was carried out for 60 minutes at 4° C. For non-specific binding 10 μM unlabeled diazepam was used. After incubation samples were filtered over UniFilter® GF/B™ using Filtermate Harvester (Perkin Elmer) and washed with 5×1 mL binding buffer. The plate was dried at 40° C. for an hour and 40 μL Microscint (Perkin Elmer) scintillation cocktail was added to each well. The plate was read in Microbeta (Perkin Elmer).
The specific radioligand binding (SB) was defined as the difference between total binding (Tot) and the non-specific binding (NSB). Results are expressed as a percent inhibition of specific binding obtained in the presence of compound of interest.
For IC50 and Ki determination a minimum of six drug concentrations in triplicate were used. […] Ki values (i.e. inhibition constants) were calculated using the Cheng-Prusoff equation Ki=IC50/[1+(L/KD)], where [L] is the radioligand concentration and KD the affinity of the labelled ligand for receptor. KD was determined from the Saturation analyses.

Chain of human recombinant GABAA α5β3γ2 receptor (P31644 32-462): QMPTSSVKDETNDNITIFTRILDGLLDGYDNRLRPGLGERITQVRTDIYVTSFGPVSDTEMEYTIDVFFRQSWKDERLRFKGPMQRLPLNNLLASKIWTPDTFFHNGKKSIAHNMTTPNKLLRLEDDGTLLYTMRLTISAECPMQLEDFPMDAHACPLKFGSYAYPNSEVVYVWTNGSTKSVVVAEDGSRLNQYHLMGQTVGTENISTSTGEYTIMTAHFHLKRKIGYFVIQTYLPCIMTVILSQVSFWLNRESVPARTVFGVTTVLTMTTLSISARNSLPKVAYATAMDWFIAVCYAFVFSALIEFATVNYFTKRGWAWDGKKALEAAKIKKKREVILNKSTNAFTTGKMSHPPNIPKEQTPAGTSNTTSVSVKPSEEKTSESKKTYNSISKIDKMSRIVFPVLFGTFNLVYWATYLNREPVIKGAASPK
Chain of human recombinant GABAA α5β3γ2 receptor (P28472 26-473 partner): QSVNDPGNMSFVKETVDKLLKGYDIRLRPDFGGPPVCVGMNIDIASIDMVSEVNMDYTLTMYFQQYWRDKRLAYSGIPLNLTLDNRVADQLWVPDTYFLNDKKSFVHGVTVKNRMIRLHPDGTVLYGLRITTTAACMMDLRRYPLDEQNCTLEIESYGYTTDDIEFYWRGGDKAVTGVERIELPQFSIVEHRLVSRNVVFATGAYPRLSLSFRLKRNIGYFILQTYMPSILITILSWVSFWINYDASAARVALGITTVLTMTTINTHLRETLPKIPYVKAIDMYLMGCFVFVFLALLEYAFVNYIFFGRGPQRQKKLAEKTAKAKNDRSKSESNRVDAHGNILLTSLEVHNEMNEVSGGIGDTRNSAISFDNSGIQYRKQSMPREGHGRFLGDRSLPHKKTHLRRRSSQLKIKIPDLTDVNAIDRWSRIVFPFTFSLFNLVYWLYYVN
Chain of human recombinant GABAA α5β3γ2 receptor (P18507 40-475): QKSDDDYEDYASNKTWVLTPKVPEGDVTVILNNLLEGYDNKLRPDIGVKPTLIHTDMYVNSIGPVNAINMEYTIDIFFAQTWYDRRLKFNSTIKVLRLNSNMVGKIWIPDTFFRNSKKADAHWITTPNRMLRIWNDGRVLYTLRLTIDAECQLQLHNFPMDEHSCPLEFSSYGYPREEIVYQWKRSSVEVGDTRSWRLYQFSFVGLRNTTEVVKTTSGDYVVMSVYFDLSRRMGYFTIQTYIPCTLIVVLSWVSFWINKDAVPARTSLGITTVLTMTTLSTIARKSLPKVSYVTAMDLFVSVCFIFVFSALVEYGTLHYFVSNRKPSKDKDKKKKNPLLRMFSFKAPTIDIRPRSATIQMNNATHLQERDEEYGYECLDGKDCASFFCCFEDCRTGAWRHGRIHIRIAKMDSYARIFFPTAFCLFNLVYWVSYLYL

`Cc1onc(-c2ccc(F)cc2)c1COc1ccc2c(n1)CN(C(=O)CS(C)(=O)=O)C2` [Example 49, 1-(2-{[3-(4-fluorophenyl)-5-methyl-1,2-oxazol-4-yl]methoxy}-5H,6H,7H-pyrrolo[3,4-b]pyridin-6-yl)-2-methanesulfonylethan-1-one]: the inhibition constant (Ki) was 0.0012 µM.

On to `CC(=O)N1Cc2ccc(OCc3c(-c4ccc(F)cc4)noc3C)nc2C1` [Example 50, 1-(2-{[3-(4-fluorophenyl)-5-methyl-1,2-oxazol-4-yl]methoxy}-5,7-dihydro-6H-pyrrolo[3,4-b]pyridin-6-yl)ethanone], for which the Ki is 0.0008 µM.

Take `CCC(=O)N1Cc2ccc(OCc3c(C)nnn3-c3ccc(F)cc3)nc2C1` [Example 52, 1-(2-{[1-(4-fluorophenyl)-4-methyl-1H-1,2,3-triazol-5-yl]methoxy}-5,7-dihydro-6H-pyrrolo[3,4-b]pyridin-6-yl)propan-1-one]: the inhibition constant Ki was determined as 0.037 µM.

As to `Cc1nnn(-c2ccc(F)cc2)c1COc1ccc2c(n1)CN(C(=O)C(F)F)C2` [Example 53, 2,2-difluoro-1-(2-{[1-(4-fluorophenyl)-4-methyl-1H-1,2,3-triazol-5-yl]methoxy}-5,7-dihydro-6H-pyrrolo[3,4-b]pyridin-6-yl)ethanone], the inhibition constant (Ki) was found to be 0.011 µM.

Consider `Cc1nnn(-c2ccc(F)cc2)c1COc1ccc2c(n1)CN(C(=O)CF)C2` [Example 54, 2-fluoro-1-(2-{[1-(4-fluorophenyl)-4-methyl-1H-1,2,3-triazol-5-yl]methoxy}-5,7-dihydro-6H-pyrrolo[3,4-b]pyridin-6-yl)ethanone], for which the inhibition constant Ki stood at 0.0053 µM.

As for `Cc1nnn(-c2ccc(F)cc2)c1COc1ccc2c(n1)CN(C(=O)C1CCOCC1)C2` [Example 55, 1-(4-fluorophenyl)-4-methyl-5-({[6-(oxane-4-carbonyl)-5H,6H,7H-pyrrolo[3,4-b]pyridin-2-yl]oxy}methyl)-1H-1,2,3-triazole], the Ki is 0.013 µM.

As for `Cc1nnn(-c2ccc(F)cc2)c1COc1ccc2c(n1)CN(C(=O)C1CCC1)C2` [Example 57, 5-[({6-cyclobutanecarbonyl-5H,6H,7H-pyrrolo[3,4-b]pyridin-2-yl}oxy)methyl]-1-(4-fluorophenyl)-4-methyl-1H-1,2,3-triazole], the inhibition constant Ki came out at 0.014 µM.

Take `Cc1nnn(-c2ccc(F)cc2)c1COc1ccc2c(n1)CN(C(=O)C(C)C)C2` [Example 58, 1-(2-{[1-(4-fluorophenyl)-4-methyl-1H-1,2,3-triazol-5-yl]methoxy}-5H,6H,7H-pyrrolo[3,4-b]pyridin-6-yl)-2-methylpropan-1-one]: the Ki worked out at 0.013 µM.

As for `Cc1nnn(-c2ccc(F)cc2)c1COc1ccc2c(n1)CN(C(=O)C(C)(C)C)C2` [Example 59, 1-(2-{[1-(4-fluorophenyl)-4-methyl-1H-1,2,3-triazol-5-yl]methoxy}-5H,6H,7H-pyrrolo[3,4-b]pyridin-6-yl)-2,2-dimethylpropan-1-one], the Ki was 0.031 µM.

`CC(=O)N1Cc2ccc(OCc3c(C)nnn3-c3ccc(Cl)cc3)nc2C1` [Example 60, 1-(2-{[1-(4-chlorophenyl)-4-methyl-1H-1,2,3-triazol-5-yl]methoxy}-5,7-dihydro-6H-pyrrolo[3,4-b]pyridin-6-yl)ethanone]: the Ki amounted to 0.0012 µM.

As to `Cc1nnn(-c2ccc(F)cc2)c1COc1ccc2c(n1)CN(C(=O)C1CCOC1)C2` (centres unmarked) [Example 62, 1-(4-fluorophenyl)-4-methyl-5-({[6-(oxolane-3-carbonyl)-5H,6H,7H-pyrrolo[3,4-b]pyridin-2-yl]oxy}methyl)-1H-1,2,3-triazole], the inhibitory constant (Ki) was found to be 0.0057 µM.

Consider `Cc1nnn(-c2ccc(F)cc2)c1COc1ccc2c(n1)CN(C(=O)C1CCCOC1)C2` (centres unmarked) [Example 63, 1-(4-fluorophenyl)-4-methyl-5-({[6-(oxane-3-carbonyl)-5H,6H,7H-pyrrolo[3,4-b]pyridin-2-yl]oxy}methyl)-1H-1,2,3-triazole], for which the inhibitory constant (Ki) is 0.0095 µM.

For `Cc1nnn(-c2ccc(F)cc2)c1COc1ccc2c(n1)CN(C(=O)c1ccncc1)C2` [Example 64, 4-(2-{[1-(4-fluorophenyl)-4-methyl-1H-1,2,3-triazol-5-yl]methoxy}-5H,6H,7H-pyrrolo[3,4-b]pyridine-6-carbonyl)pyridine], the inhibition constant Ki came out at 0.025 µM.

In the case of `Cc1nnn(-c2ccc(F)cc2)c1COc1ccc2c(n1)CN(C(=O)c1cccnc1)C2` [Example 65, 3-(2-{[1-(4-fluorophenyl)-4-methyl-1H-1,2,3-triazol-5-yl]methoxy}-5H,6H,7H-pyrrolo[3,4-b]pyridine-6-carbonyl)pyridine], the Ki worked out at 0.028 µM.

On to `Cc1nnn(-c2ccc(F)cc2)c1COc1ccc2c(n1)CN(C(=O)c1ccccn1)C2` [Example 66, 2-(2-{[1-(4-fluorophenyl)-4-methyl-1H-1,2,3-triazol-5-yl]methoxy}-5H,6H,7H-pyrrolo[3,4-b]pyridine-6-carbonyl)pyridine], for which the Ki was found to be 0.059 µM.

As for `CC(=O)N1Cc2ccc(OCc3c(-c4ccc(F)cc4)nnn3C)nc2C1` [Example 67, 1-(2-{[4-(4-fluorophenyl)-1-methyl-1H-1,2,3-triazol-5-yl]methoxy}-5,7-dihydro-6H-pyrrolo[3,4-b]pyridin-6-yl)ethanone], the inhibition constant (Ki) came to 0.02 µM.

Take `CC(=O)N1Cc2ccc(OCc3c(-c4ccc(Cl)cc4)nnn3C)nc2C1` [Example 68, 1-(2-{[4-(4-chlorophenyl)-1-methyl-1H-1,2,3-triazol-5-yl]methoxy}-5,7-dihydro-6H-pyrrolo[3,4-b]pyridin-6-yl)ethanone]: the inhibition constant (Ki) came out at 0.0075 µM.

In the case of `CCC(=O)N1Cc2ccc(OCc3c(-c4ccc(F)cc4)nnn3C)nc2C1` [Example 69, 1-(2-{[4-(4-fluorophenyl)-1-methyl-1H-1,2,3-triazol-5-yl]methoxy}-5,7-dihydro-6H-pyrrolo[3,4-b]pyridin-6-yl)propan-1-one], the inhibitory constant (Ki) was 0.025 µM.

Consider `Cn1nnc(-c2ccc(F)cc2)c1COc1ccc2c(n1)CN(C(=O)CF)C2` [Example 70, 2-fluoro-1-(2-{[4-(4-fluorophenyl)-1-methyl-1H-1,2,3-triazol-5-yl]methoxy}-5,7-dihydro-6H-pyrrolo[3,4-b]pyridin-6-yl)ethanone], for which the Ki was found to be 0.0092 µM.

In the case of `Cn1nnc(-c2ccc(F)cc2)c1COc1ccc2c(n1)CN(C(=O)C1CCOC1)C2` (centres unmarked) [Example 71, 4-(4-fluorophenyl)-1-methyl-5-({[6-(oxolane-3-carbonyl)-5H,6H,7H-pyrrolo[3,4-b]pyridin-2-yl]oxy}methyl)-1H-1,2,3-triazole], the inhibitory constant (Ki) worked out at 0.056 µM.

For the compound `CC(C)C(=O)N1Cc2ccc(OCc3c(-c4ccc(F)cc4)nnn3C)nc2C1` [Example 72, 1-(2-{[4-(4-fluorophenyl)-1-methyl-1H-1,2,3-triazol-5-yl]methoxy}-5H,6H,7H-pyrrolo[3,4-b]pyridin-6-yl)-2-methylpropan-1-one], the inhibitory constant (Ki) turned out to be 0.029 µM.

On to `Cn1nnc(-c2ccc(F)cc2)c1COc1ccc2c(n1)CN(C(=O)C1CCCO1)C2` (centres unmarked) [Example 73, 4-(4-fluorophenyl)-1-methyl-5-({[6-(oxolane-2-carbonyl)-5H,6H,7H-pyrrolo[3,4-b]pyridin-2-yl]oxy}methyl)-1H-1,2,3-triazole], for which the Ki is 0.018 µM.

In the case of `Cn1nnc(-c2ccc(F)cc2)c1COc1ccc2c(n1)CN(C(=O)C1CCCOC1)C2` (centres unmarked) [Example 74, 4-(4-fluorophenyl)-1-methyl-5-({[6-(oxane-3-carbonyl)-5H,6H,7H-pyrrolo[3,4-b]pyridin-2-yl]oxy}methyl)-1H-1,2,3-triazole], the Ki worked out at 0.046 µM.
